Entries after “also recorded” stand apart in the source; their conditions may differ. Read-outs that look alike come from different tables or passages of the source.
Assays:
P2Y2 receptors = P2Y2 receptors (Homo sapiens, UniProt P41231); conditions: phase III trials in the United States; cited from earlier work
CFTR [1] = target: T1, CFTR (Oryctolagus cuniculus, UniProt Q00554); assay: short-circuit current in freshly isolated rabbit conjunctiva, CFTR; type: cell-based
T1 construct: ocular surface PD measurements provide information about CFTR function in its native environment; from tissue; host or cells: rabbit ocular surface in vivo (cornea and conjunctiva); freshly isolated rabbit forniceal and palpebral conjunctiva
T1 sequence (Q00554 whole entry): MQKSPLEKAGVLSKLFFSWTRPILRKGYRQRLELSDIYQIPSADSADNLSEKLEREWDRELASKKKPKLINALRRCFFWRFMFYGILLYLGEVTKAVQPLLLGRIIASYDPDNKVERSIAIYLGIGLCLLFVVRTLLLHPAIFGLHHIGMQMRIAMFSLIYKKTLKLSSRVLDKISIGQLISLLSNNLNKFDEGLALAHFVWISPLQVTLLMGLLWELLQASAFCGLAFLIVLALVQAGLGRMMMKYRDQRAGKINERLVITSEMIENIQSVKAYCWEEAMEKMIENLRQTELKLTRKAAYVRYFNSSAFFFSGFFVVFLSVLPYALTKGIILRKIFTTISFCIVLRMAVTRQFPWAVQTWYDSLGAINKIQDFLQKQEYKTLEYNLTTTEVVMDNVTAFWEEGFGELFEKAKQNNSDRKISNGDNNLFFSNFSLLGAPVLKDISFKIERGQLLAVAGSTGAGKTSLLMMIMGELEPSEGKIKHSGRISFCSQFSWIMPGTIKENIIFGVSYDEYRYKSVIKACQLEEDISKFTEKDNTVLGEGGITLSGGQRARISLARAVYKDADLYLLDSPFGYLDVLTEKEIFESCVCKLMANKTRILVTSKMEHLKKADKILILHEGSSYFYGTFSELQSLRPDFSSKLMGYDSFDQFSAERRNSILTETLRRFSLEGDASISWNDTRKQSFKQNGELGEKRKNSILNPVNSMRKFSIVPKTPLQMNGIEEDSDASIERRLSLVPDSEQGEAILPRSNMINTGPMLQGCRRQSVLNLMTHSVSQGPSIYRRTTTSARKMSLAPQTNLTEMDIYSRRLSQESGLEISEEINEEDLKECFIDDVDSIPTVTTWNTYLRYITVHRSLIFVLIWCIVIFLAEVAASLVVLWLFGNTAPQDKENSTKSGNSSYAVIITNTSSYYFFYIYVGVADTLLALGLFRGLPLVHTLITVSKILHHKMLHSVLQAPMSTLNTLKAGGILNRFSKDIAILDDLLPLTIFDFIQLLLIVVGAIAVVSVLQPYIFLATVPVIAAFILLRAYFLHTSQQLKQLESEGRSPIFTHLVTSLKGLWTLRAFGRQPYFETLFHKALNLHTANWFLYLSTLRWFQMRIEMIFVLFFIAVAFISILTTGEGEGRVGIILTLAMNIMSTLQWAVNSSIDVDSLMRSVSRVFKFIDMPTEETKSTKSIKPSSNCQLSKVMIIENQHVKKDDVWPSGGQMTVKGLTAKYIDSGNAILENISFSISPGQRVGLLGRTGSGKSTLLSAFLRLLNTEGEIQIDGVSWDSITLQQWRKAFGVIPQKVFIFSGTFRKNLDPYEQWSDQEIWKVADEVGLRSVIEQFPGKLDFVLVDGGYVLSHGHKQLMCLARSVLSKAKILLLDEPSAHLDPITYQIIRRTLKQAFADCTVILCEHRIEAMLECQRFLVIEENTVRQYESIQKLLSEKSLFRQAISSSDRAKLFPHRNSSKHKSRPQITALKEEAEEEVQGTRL
Procedure: Short-circuit current was measured in freshly isolated rabbit conjunctiva, as described^16 with modification. Rabbits were euthanized by injection of 150 mg/kg euthasol into the marginal ear vein. The entire eyeball with eyelids intact was removed from the orbit to preserve conjunctival epithelium integrity. Within 10 min a sheet of forniceal and palpebral conjunctiva was dissected, mounted onto a P2304 tissue slider (Physiologic Instruments, San Diego, CA), and placed into the Ussing chamber. The apical and basolateral chambers contained (in mM): 120 NaCl, 3 KCl, 1 CaCl2, 1 MgCl2, 10 glucose, 25 NaHCO3 and 5 HEPES, pH 7.4. […] Hemichambers were connected to a DVC-1000 voltage clamp (World Precision Instruments Inc., Sarasota, FL) via Ag/AgCl electrodes and 3 M KCl agar bridges.
In separate electrophysiological studies, CFTR activation was measured in freshly isolated conjunctiva ex vivo by short-circuit current analysis.

CFTR [2] = target: T1, CFTR; assay: open-circuit ocular surface potential difference (PD) in anesthetized rabbits, CFTR; type: in vivo; conditions: rabbit
Procedure: Open-circuit transepithelial potential difference (PD, in mV) at the ocular surface was measured continuously in anesthetized rabbits using a procedure modified from that established in mice. […] Rabbits were intubated and anesthetized with isoflurane, and respiratory rate, blood pressure and body temperature were monitored. For PD recording, solutions (see below) were serially perfused at 10 mL/min through PE-90 plastic tubing using a gravity multi-reservoir pinch-valve system (ALA Scientific, Westbury, NY) and a variable-flow peristaltic pump (medium flow model; Thermo Fisher Scientific, Fair Lawn, NJ). A probe catheter was fixed onto an adjustable stereotaxic frame with the tip immersed in solution contacting the ocular surface. Excess fluid was aspirated by continuous suction (low-powered wall vacuum) using ⅛-inch tubing (inner diameter 3/32 inch) positioned 3 mm from the orbit in order to maintain near-constant perfusate volume in contact with cornea, bulbar conjunctiva and palpebral conjunctiva without fluid runoff. The measuring electrode contacted the perfusion catheter and was connected to a high-impedance voltmeter (IsoMilivolt Meter; World Precision Instruments, Sarasota, FL). The reference electrode was grounded using a winged, 25-gauge needle filled with normal saline inserted subcutaneously in the abdomen. The measuring and reference electrodes consisted of Ag/AgCl with 3 M KCl agar bridges.
All solutions contained 10 M indomethacin to prevent CFTR activation by prostaglandins.

ENaC [3] = assay: open-circuit ocular surface potential difference (PD) in anesthetized rabbits, ENaC; conditions: rabbit, normal Cl- solution with amiloride 100 μM
Procedure: Open-circuit transepithelial potential difference (PD, in mV) at the ocular surface was measured continuously in anesthetized rabbits using a procedure modified from that established in mice. […] Rabbits were intubated and anesthetized with isoflurane, and respiratory rate, blood pressure and body temperature were monitored. For PD recording, solutions (see below) were serially perfused at 10 mL/min through PE-90 plastic tubing using a gravity multi-reservoir pinch-valve system (ALA Scientific, Westbury, NY) and a variable-flow peristaltic pump (medium flow model; Thermo Fisher Scientific, Fair Lawn, NJ). A probe catheter was fixed onto an adjustable stereotaxic frame with the tip immersed in solution contacting the ocular surface. Excess fluid was aspirated by continuous suction (low-powered wall vacuum) using ⅛-inch tubing (inner diameter 3/32 inch) positioned 3 mm from the orbit in order to maintain near-constant perfusate volume in contact with cornea, bulbar conjunctiva and palpebral conjunctiva without fluid runoff. The measuring electrode contacted the perfusion catheter and was connected to a high-impedance voltmeter (IsoMilivolt Meter; World Precision Instruments, Sarasota, FL). The reference electrode was grounded using a winged, 25-gauge needle filled with normal saline inserted subcutaneously in the abdomen. […]

ENaC [4] = assay: short-circuit current in freshly isolated rabbit conjunctiva, amiloride; conditions: amiloride 10 μM
Procedure: Short-circuit current was measured in freshly isolated rabbit conjunctiva, as described^16 with modification. Rabbits were euthanized by injection of 150 mg/kg euthasol into the marginal ear vein. The entire eyeball with eyelids intact was removed from the orbit to preserve conjunctival epithelium integrity. Within 10 min a sheet of forniceal and palpebral conjunctiva was dissected, mounted onto a P2304 tissue slider (Physiologic Instruments, San Diego, CA), and placed into the Ussing chamber. The apical and basolateral chambers contained (in mM): 120 NaCl, 3 KCl, 1 CaCl2, 1 MgCl2, 10 glucose, 25 NaHCO3 and 5 HEPES, pH 7.4. Solutions were bubbled with 95% O2/5% CO2 and maintained at 37° C. Hemichambers were connected to a DVC-1000 voltage clamp (World Precision Instruments Inc., Sarasota, FL) via Ag/AgCl electrodes and 3 M KCl agar bridges.

mice [5] = conditions: cited from earlier work
CFTR [6] = target: CFTR (Homo sapiens, UniProt P13569); conditions: cited from earlier work; for extent of CFTR activation / EC50: cell cultures; for EC50: read-out: EC50 of CFTR activation
Chain of CFTR (Homo sapiens, UniProt P13569) (P13569 whole entry, species assumed): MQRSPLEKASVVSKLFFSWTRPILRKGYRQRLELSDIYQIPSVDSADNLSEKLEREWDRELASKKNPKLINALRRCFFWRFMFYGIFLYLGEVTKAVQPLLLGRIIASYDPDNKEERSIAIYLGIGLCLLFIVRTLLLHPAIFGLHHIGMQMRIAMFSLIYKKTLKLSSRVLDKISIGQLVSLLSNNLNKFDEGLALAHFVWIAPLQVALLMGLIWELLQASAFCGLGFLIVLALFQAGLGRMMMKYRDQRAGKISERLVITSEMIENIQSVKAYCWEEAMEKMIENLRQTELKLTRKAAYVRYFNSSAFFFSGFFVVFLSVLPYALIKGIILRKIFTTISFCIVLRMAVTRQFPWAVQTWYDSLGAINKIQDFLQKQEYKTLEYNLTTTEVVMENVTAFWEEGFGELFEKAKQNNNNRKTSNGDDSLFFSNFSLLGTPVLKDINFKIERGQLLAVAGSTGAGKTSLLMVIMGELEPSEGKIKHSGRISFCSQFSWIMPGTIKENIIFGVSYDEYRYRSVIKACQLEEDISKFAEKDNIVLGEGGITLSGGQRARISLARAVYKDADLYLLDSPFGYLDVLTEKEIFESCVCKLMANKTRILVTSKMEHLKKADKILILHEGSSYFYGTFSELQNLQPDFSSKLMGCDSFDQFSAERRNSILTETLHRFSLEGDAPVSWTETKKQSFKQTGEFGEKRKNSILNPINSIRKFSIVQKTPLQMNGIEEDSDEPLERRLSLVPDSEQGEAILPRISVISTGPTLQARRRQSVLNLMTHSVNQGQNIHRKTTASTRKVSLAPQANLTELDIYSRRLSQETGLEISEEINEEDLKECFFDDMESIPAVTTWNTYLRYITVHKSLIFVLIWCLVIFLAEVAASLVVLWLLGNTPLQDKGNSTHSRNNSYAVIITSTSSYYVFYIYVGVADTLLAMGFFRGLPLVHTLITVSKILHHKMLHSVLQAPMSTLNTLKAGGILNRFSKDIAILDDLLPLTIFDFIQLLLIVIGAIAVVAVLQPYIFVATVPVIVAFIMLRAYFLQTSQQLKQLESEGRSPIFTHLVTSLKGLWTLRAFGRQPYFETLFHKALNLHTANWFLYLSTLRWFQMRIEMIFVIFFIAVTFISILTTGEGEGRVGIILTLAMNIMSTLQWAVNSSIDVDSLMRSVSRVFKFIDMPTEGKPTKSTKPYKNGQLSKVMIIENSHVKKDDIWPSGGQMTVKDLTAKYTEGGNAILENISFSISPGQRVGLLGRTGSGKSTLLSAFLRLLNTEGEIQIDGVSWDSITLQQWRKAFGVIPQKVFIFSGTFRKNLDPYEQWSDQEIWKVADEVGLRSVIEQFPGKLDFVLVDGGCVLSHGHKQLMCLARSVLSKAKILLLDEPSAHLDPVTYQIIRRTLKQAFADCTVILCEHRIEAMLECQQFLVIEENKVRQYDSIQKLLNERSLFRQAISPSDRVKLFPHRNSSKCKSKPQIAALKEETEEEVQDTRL

mice [7] = conditions: lacrimal gland ablation, three times daily; cited from earlier work
CFTR-deficient mice = conditions: cited from earlier work
rabbits [8] = assay: Schirmer Tear Test II after single topical dose (pharmacodynamics); type: in vivo, rabbit
Procedure: (§1) Tear production was measured using the anesthetized Schirmer Tear Test (STT, Eagle Vision, Memphis TN). To minimize reflex tearing, one drop of 0.5% proparacaine hydrochloride (Akorn, Lake Forest, TL) was placed onto the corneal surface and excess fluid was absorbed at the medial canthus using eye spear sponges (Fine Science Tools, Foster City, CA). After 5 min the notched strip was inserted into the lower lateral conjunctival fornix, maintaining contact with the lateral cornea. The wetted length (mm) of the strip indicated by blue dye appearance was read after 5 min.
Serial STT measurements were done before and at 1, 3, 6, 9, 12 and 24 hours following application of a single 30-μL drop of Compound A formulation (or vehicle alone) into the conjunctival sac. Both eyes received the same treatment to control for potential contralateral effects of a given treatment. Pharmacokinetics and Tissue Distribution
Compound A was tested for its efficacy in augmenting tear fluid production in rabbits. Prior work identified a formulation (0.325% CMC in Ringer's solution containing 0.015% BAC and 1% DMSO) that stably solubilized Compound A and was effective when delivered topically to mice.^15 A single application of 3 nmol Compound A ([…] of a 100 µM solution) increased tear volume by ˜60% for at least 9 hours compared to vehicle (FIG. 3A). […] When 3 nmol of Compound A was delivered in a more viscous formulation containing 0.625% (instead of 0.3%) CMC, to potentially increase Compound A ocular surface residence time, compound efficacy was unchanged (FIG. 3C).

[9] = liver; in vitro microsomal stability; cited from earlier work
[10] = pharmacokinetics in tear fluid by LC/MS; type: in vivo; conditions: rabbit
Procedure: Compound A was quantified by liquid chromatography/mass spectroscopy (LC/MS) at 15 min, 1 hour, 2 hours, 6 hours and 24 hours after a single, 3-nmol topical dose. To recover Compound A at indicated times, three eye washes of 30 μL sterile PBS were done with solution recovered from the lateral and medial canthi after manual eyelid blinking using 50-μL glass capillary tubes. Pooled washes were diluted in three volumes of ethyl acetate, centrifuged at 13,000 rpm for 15 min, and the collected supernatant was analyzed by LC/MS (Waters 2695 HPLC with Micromass ZQ).^14 LC was done on an Xterra MS C18 column (2.1 mm×100 mm, 3.5 μm) with 0.2 mL/min water/acetonitrile containing 0.1% formic acid, 12 min linear gradient, 5-95% acetonitrile.
Corresponding compound concentrations in tear fluid (open circles, right ordinate) were estimated using tear volumes deduced from STT measurements in FIG. 2A.

rabbits [11] = assay: chronic administration, ocular toxicity (clinical examination, histology); type: in vivo; conditions: rabbit
Procedure: In chronic treatment studies, eyes were treated twice daily for 28 days as described above. STT, intraocular pressure (IOP), and central corneal thickness were measured on days 0, 7, 14, 21 and 28. Slit lamp examinations were performed on days 0, 14 and 28 by a board-certified ophthalmologist blinded to treatment status. STT was done one hour after the first treatment of the day (9 am). IOP was measured with a Tonolab rebound tonometer (Colonial Medical Supply, Windham, NH). Central corneal thickness was measured using the Corneo-Gage Plus 2 pachymeter (Sonogage Inc., Cleveland, OH). […] One minute later, photographs of the eye were taken with a digital camera and staining was evaluated according to a 12-point scale as described^17: each corneal quadrant was scored in a blinded fashion on a 3-point scale: grade 0, no staining; grade 1, sporadic staining (involving <25% of the total surface); grade 2, diffuse punctate staining (25-75%); and grade 3, coalesced punctate staining (≥75%). The total grade is reported as the sum of scores from all 4 quadrants, ranging from 0 to 12. Conjunctival congestion, chemosis, discharge, corneal haze or neovascularization, anterior chamber cellular reaction or flare, iris neovascularization, lens opacification or loss of red reflex, were each rated using a modified McDonald-Shadduck scale on a four-point scale, where zero is normal.
A subset of chronically treated eyes were enucleated with eyelids intact after transcardial perfusion with PBS followed by 4% paraformaldehyde, and left overnight in 4° C. in 30% sucrose. […] Cryosections (8 μm thickness) were stained with hematoxylin and eosin (H&E) using a standard protocol.

cAMP = conditions: prior studies; cited from earlier work
rabbits [12] = assay: chronic administration, tear volume by STT; type: in vivo; conditions: rabbit, 3 nmol twice-daily for 28 days
Procedure: as §1
In chronic treatment studies, Compound A (3 nmol, or formulation control) was given twice daily (8 am and 4 pm) for 28 days. Two mL of blood was collected from the marginal ear vein in EDTA tubes. Rabbits were then euthanized using 150 mg/kg euthasol, and ocular tissues, serum and peripheral organs were collected. […]
In chronic treatment studies, eyes were treated twice daily for 28 days as described above. STT, intraocular pressure (IOP), and central corneal thickness were measured on days 0, 7, 14, 21 and 28. […] IOP was measured with a Tonolab rebound tonometer (Colonial Medical Supply, Windham, NH). Central corneal thickness was measured using the Corneo-Gage Plus 2 pachymeter (Sonogage Inc., Cleveland, OH). […]

[13] = tissue levels by LC/MS following chronic administration; type: in vivo; conditions: rabbit, 3 nmol twice-daily for 28 days
Procedure: In chronic treatment studies, Compound A (3 nmol, or formulation control) was given twice daily (8 am and 4 pm) for 28 days. Two mL of blood was collected from the marginal ear vein in EDTA tubes. Rabbits were then euthanized using 150 mg/kg euthasol, and ocular tissues, serum and peripheral organs were collected. Using a surgical microscope, 150 μL of aqueous humor was collected through the peripheral cornea using a 25-gauge needle, and 300 μL of vitreous fluid was aspirated through the pars plana with a 23-gauge needle. Following transcardial perfusion with heparinized phosphate-buffered saline (PBS), eyes were enucleated with lids intact, and the cornea, iris/ciliary body, lens, bulbar, forniceal and palpebral conjunctiva, and retina of both eyes were dissected, weighed, homogenized in 1:4 mixture of water:ethyl acetate (10 mL/1 g tissue) and centrifuged (3000 rpm for 15 min). Plasma, aqueous and vitreous samples were each mixed with 3 volumes of ethyl acetate and centrifuged for 15 min at 13,200 rpm, and the supernatant was evaporated and re-dissolved in HPLC eluent (100 μL of 1:3 water:acetonitrile containing 0.1% formic acid) for LC/MS analysis. Also, brain, kidney, heart and liver were removed, weighed, mixed with 1:4 mixture of water:ethyl acetate (10 mL/1 g tissue), and homogenized. The homogenized samples were vortexed and centrifuged (3000 rpm for 15 min), and the ethyl acetate-containing supernatant was evaporated, and then re-dissolved in HPLC eluent for LC/MS analysis. The lower limit of detection for Compound A was ˜0.2 pg/mg of homogenized tissue or biological fluid, which was defined as giving a signal-to-noise ratio >3.

[14] = 25 picomol topical administration
[15] = rabbit, single topical dose of 3 nmol

Chain of P2Y2 receptors (P41231 whole entry): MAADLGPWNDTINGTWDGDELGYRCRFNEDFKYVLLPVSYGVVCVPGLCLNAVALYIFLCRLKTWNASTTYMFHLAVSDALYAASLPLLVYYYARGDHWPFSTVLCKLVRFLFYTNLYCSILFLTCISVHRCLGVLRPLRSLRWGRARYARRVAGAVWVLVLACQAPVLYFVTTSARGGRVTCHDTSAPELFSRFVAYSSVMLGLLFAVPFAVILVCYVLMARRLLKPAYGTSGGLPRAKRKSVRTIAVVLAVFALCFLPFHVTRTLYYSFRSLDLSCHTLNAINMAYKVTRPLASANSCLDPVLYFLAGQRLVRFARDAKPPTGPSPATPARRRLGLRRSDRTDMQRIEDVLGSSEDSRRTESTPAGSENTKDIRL

Compound: O=c1ccn([C@@H]2O[C@H](COP(=O)(O)OP(=O)(O)OP(=O)(O)OP(=O)(O)OC[C@H]3O[C@@H](n4ccc(=O)[nH]c4=O)[C@H](O)[C@@H]3O)[C@@H](O)[C@H]2O)c(=O)[nH]1 [diquafosol]
- efficacy in dry eye (P2Y2 receptors): did not show efficacy

Compound: 3-[(3-Trifluoromethyl)phenyl]-5-[(4-carboxyphenyl)methylene]-2-thioxo-4-thiazolidinone [CFTRinh-172, reference compound]
- effect on the increases in short-circuit current (CFTR [1]; inhibitor added last): inhibited
- effect on the PD changes (CFTR [2]; CFTRinh-172 10 μM in final perfusion solution): largely reversed

Compound: N=C(N)NC(=O)c1nc(Cl)c(N)nc1N [amiloride]
- change in ocular surface PD (ENaC [3]): initial depolarization
- effect on short-circuit current (ENaC [4]): no effect

Compound: CCN(CC)c1nc(Nc2ccccc2)nc(OC(C(F)(F)F)C(F)(F)F)n1 [Compound C]
- duration of increase in tear volume (mice [5]; [14]): 8 h
- tear volume (mice [5]; [14]): sustained increase in tear volume
- extent of CFTR activation (CFTR [6]): fully activated CFTR
- EC50 (CFTR [6]): ~30 nM
- corneal epithelial disruption (mice [7]): prevented corneal epithelial disruption
- pathology when administered after development of dry eye (mice [7]): reversed pathology
- tear volume (mice [7]): normalized tear volume

Compound: CNc1nc(Nc2ccccc2)nc(OCC(F)(F)C(F)F)n1 [Compound A, N-Methyl-N′-phenyl-6-(2,2,3,3-tetrafluoropropoxy)-1,3,5-triazine-2,4-diamine]
- effect in CFTR-deficient mice (CFTR-deficient mice): without effect; also recorded: absence of Compound A effect
- increase in tear fluid volume (rabbits [8]; from STT wetting using reported relationship between STT wetting and volume): 2.7 µL
- compound efficacy in more viscous formulation (rabbits [8]; rabbit, 3 nmol, 0.625% (instead of 0.3%) CMC): unchanged
- increase in tear volume compared to vehicle (rabbits [8]; rabbit, single application of 3 nmol, 0.3% CMC): ~60%
- tear production (rabbits [8]; rabbit, single dose 0.75 nmol): no significant increase
- activity on tear production (rabbits [8]; rabbit, single dose 1.5 nmol): reduced duration of activity
- augmentation in tear production by STT, average over 9 hours (rabbits [8]; [15]): 5.3 mm
- duration of increase in tear volume / tear secretion (rabbits [8]; [15]): at least 9 hours
- change in short-circuit current (CFTR [1]; 1 and then 10 μM Compound A after forskolin 25 nM): further increased
- EC50 (CFTR [1]; rabbit conjunctiva ex vivo, data at 1 vs. 10 μM, read-out: apparent EC50 of CFTR activation (short-circuit current)): < 1000 nM
- duration of doubled tear volume (mice [5]; delivered topically): four
- tear volume (mice [5]; delivered topically): doubled tear volume
- hepatic metabolism [9]: rapidly metabolized by the liver; also recorded: rapid predicted hepatic metabolism
- time to maximal CFTR activation at the ocular surface (PD) (CFTR [2]; after exposure): within a few minutes
- change in ocular surface PD (CFTR [2]; low Cl- + amiloride, Compound A 1 and 10 μM): substantial depolarization
- time at predicted therapeutic concentrations in tear fluid ([10]; 3-nmol dose, concentrations estimated using tear volumes from STT): at least several hours
- Compound A recovered from tear fluid over time ([10]; single topical dose of 3 nmol, three eye washes): approximate exponential decline
- IOP, vehicle vs. treated eyes (rabbits [11]; 3 nmol twice-daily for 28 days): No significant differences
- Lissamine green staining (rabbits [11]; 3 nmol twice-daily for 28 days): no injury to the ocular surface
- central corneal thickness, vehicle vs. treated eyes (rabbits [11]; 3 nmol twice-daily for 28 days): No significant differences
- slit-lamp evaluation (rabbits [11]; 3 nmol twice-daily for 28 days): no evidence of conjunctival hyperemia, anterior chamber inflammation, or lens opacification
- histology of cornea, conjunctiva, lens, ciliary body, retina (rabbits [11]; day 28): no pathological changes
- acute ocular irritation (blinking, behavior) (rabbits [11]; following topical administrations): No apparent acute ocular irritation
- extent of CFTR activation (CFTR [6]): fully activated CFTR
- EC50 (CFTR [6]): ~250 nM
- potency of CFTR activation (CFTR [6]; prior studies): nanomolar potency
- elevation of total cellular cAMP (cAMP): without detectable elevation
- tear volume (STT) (rabbits [12]): augmented tear volume in a sustained fashion without tachyphylaxis
- level in aqueous and vitreous fluid, lens and iris/ciliary body [13]: near or below the limit of detection
- level in blood, heart, brain, liver and kidney [13]: below the limit of detection
- level in vitreous fluid [13]: not detected
- rank of levels in ocular tissues [13]: cornea>conjunctiva>>retina
- concentration at 28 days ([13]; retina, topical, read-out: level in retina, equivalent concentration): < 10 nM

Source: US11839616B2, “Ocular pharmaceutical compositions” (THE REGENTS OF THE UNIVERSITY OF CALIFORNIA, priority 2017, dated 2023)
